# Values of other authors as cited in US20140323580A1, “P[…] DOSAGE FORM” (Pharmacorp CC, priority 2009, published 2014).
# Structures can show the parent of a compound that is named as a salt. Where two headings read alike, the source gives them in different places.
Structure (SMILES),solubility in alcohol,solubility in chloroform,solubility in ether,solubility in water,solubility in alcohol (HCl),solubility in chloroform (HCl),solubility in ether (HCl),solubility in water (HCl)
"CC(C)(N)Cc1ccccc1 [Phentermine, α,α-dimethyl phenethylamine (phenyl-tertiary-butylamine)]",soluble,soluble,soluble,slightly soluble,,,,
CC(C)(N)Cc1ccccc1 [phentermine HCl],,,,,very soluble,very soluble,insoluble,very soluble
